± gives the expanded uncertainty stated by the source.
Experiment: mn = molality of the nth substance listed, in mol/kg
Conditions: 101 kPa, Liquid, Capillary tube (Ostwald / Ubbelohde) method

Work on `O=[N+]([O-])[O-].[K+]` [potassium nitrate] + O yielded a viscosity (303.15 K, m1 = 0.003067) of 0.8152 ± 0.017 mPa·s, a viscosity (303.15 K, m1 = 0.003997) of 0.8175 ± 0.017 mPa·s and a viscosity (303.15 K, m1 = 0.005019) of 0.819 ± 0.017 mPa·s. For the same compound, the viscosity (303.15 K, m1 = 0.006997) was 0.8217 ± 0.017 mPa·s, the viscosity (303.15 K, m1 = 0.008615) was 0.8244 ± 0.017 mPa·s and the viscosity (303.15 K, m1 = 0.01033) was 0.8263 ± 0.017 mPa·s. It also gave a viscosity (308.15 K, m1 = 0.003067) of 0.7365 ± 0.015 mPa·s, a viscosity (308.15 K, m1 = 0.003997) of 0.7382 ± 0.015 mPa·s and a viscosity (308.15 K, m1 = 0.005019) of 0.731 ± 0.015 mPa·s. It also gave a viscosity (308.15 K, m1 = 0.006997) of 0.7433 ± 0.015 mPa·s, a viscosity (308.15 K, m1 = 0.008615) of 0.7449 ± 0.015 mPa·s and a viscosity (308.15 K, m1 = 0.01033) of 0.7472 ± 0.016 mPa·s. It also gave a viscosity (313.15 K, m1 = 0.003067) of 0.6691 ± 0.014 mPa·s, a viscosity (313.15 K, m1 = 0.003997) of 0.6705 ± 0.014 mPa·s and a viscosity (313.15 K, m1 = 0.005019) of 0.6722 ± 0.014 mPa·s. For the same compound, the viscosity (313.15 K, m1 = 0.006997) was 0.6752 ± 0.014 mPa·s, the viscosity (313.15 K, m1 = 0.008615) was 0.6775 ± 0.014 mPa·s and the viscosity (313.15 K, m1 = 0.01033) was 0.6782 ± 0.014 mPa·s. It also gave a viscosity (318.15 K, m1 = 0.003067) of 0.6139 ± 0.013 mPa·s, a viscosity (318.15 K, m1 = 0.003997) of 0.6157 ± 0.013 mPa·s and a viscosity (318.15 K, m1 = 0.005019) of 0.6178 ± 0.013 mPa·s. For the same compound, the viscosity (318.15 K, m1 = 0.006997) was 0.621 ± 0.013 mPa·s, the viscosity (318.15 K, m1 = 0.008615) was 0.6231 ± 0.013 mPa·s and the viscosity (318.15 K, m1 = 0.01033) was 0.6253 ± 0.013 mPa·s. The viscosity (323.15 K, m1 = 0.003067) was 0.5658 ± 0.012 mPa·s, the viscosity (323.15 K, m1 = 0.003997) was 0.568 ± 0.012 mPa·s and the viscosity (323.15 K, m1 = 0.005019) was 0.5701 ± 0.012 mPa·s. For the same compound, the viscosity (323.15 K, m1 = 0.006997) was 0.5737 ± 0.012 mPa·s, the viscosity (323.15 K, m1 = 0.008615) was 0.5761 ± 0.012 mPa·s and the viscosity (323.15 K, m1 = 0.01033) was 0.5785 ± 0.012 mPa·s.

With `[Cl-].[K+]` [potassium chloride] + O the viscosity (303.15 K, m1 = 0.003209) was 0.8063 ± 0.017 mPa·s, the viscosity (303.15 K, m1 = 0.003885) was 0.8068 ± 0.017 mPa·s and the viscosity (303.15 K, m1 = 0.004985) was 0.8076 ± 0.017 mPa·s. For the same compound, the viscosity (303.15 K, m1 = 0.006959) was 0.8088 ± 0.017 mPa·s, the viscosity (303.15 K, m1 = 0.008075) was 0.8094 ± 0.017 mPa·s and the viscosity (303.15 K, m1 = 0.009511) was 0.8102 ± 0.017 mPa·s. For the same compound, the viscosity (308.15 K, m1 = 0.003209) was 0.7279 ± 0.015 mPa·s, the viscosity (308.15 K, m1 = 0.003885) was 0.7284 ± 0.015 mPa·s and the viscosity (308.15 K, m1 = 0.004985) was 0.7292 ± 0.015 mPa·s. The viscosity (308.15 K, m1 = 0.006959) was 0.7304 ± 0.015 mPa·s, the viscosity (308.15 K, m1 = 0.008075) was 0.7286 ± 0.015 mPa·s and the viscosity (308.15 K, m1 = 0.009511) was 0.7316 ± 0.015 mPa·s. For the same compound, the viscosity (313.15 K, m1 = 0.003209) was 0.6616 ± 0.014 mPa·s, the viscosity (313.15 K, m1 = 0.003885) was 0.6621 ± 0.014 mPa·s and the viscosity (313.15 K, m1 = 0.004985) was 0.6629 ± 0.014 mPa·s. It also gave a viscosity (313.15 K, m1 = 0.006959) of 0.6641 ± 0.014 mPa·s, a viscosity (313.15 K, m1 = 0.008075) of 0.6647 ± 0.014 mPa·s and a viscosity (313.15 K, m1 = 0.009511) of 0.6655 ± 0.014 mPa·s. It also gave a viscosity (318.15 K, m1 = 0.003209) of 0.6045 ± 0.013 mPa·s, a viscosity (318.15 K, m1 = 0.003885) of 0.6051 ± 0.013 mPa·s and a viscosity (318.15 K, m1 = 0.004985) of 0.6059 ± 0.013 mPa·s. For the same compound, the viscosity (318.15 K, m1 = 0.006959) was 0.6071 ± 0.013 mPa·s, the viscosity (318.15 K, m1 = 0.008075) was 0.6077 ± 0.013 mPa·s and the viscosity (318.15 K, m1 = 0.009511) was 0.6086 ± 0.013 mPa·s. For the same compound, the viscosity (323.15 K, m1 = 0.003209) was 0.5552 ± 0.012 mPa·s, the viscosity (323.15 K, m1 = 0.003885) was 0.5557 ± 0.012 mPa·s and the viscosity (323.15 K, m1 = 0.004985) was 0.5566 ± 0.012 mPa·s. For the same compound, the viscosity (323.15 K, m1 = 0.006959) was 0.5578 ± 0.012 mPa·s, the viscosity (323.15 K, m1 = 0.008075) was 0.5584 ± 0.012 mPa·s and the viscosity (323.15 K, m1 = 0.009511) was 0.5592 ± 0.012 mPa·s.

— the NIST ThermoML archive (doi:10.1016/j.jct.2011.06.024)
